The record followed here is US20240246946A1, “MODULATORS OF TREX1” (Constellation Pharmaceuticals, Inc., priority 2021, published 2024).

Assay [1] concerns the target T1, full length human TREX1 (Homo sapiens, UniProt Q9NSU2).
T1 construct: N-terminally His-Tev tagged full length human TREX1; made in house; host or cells: E. coli
T1 sequence (Q9NSU2 1-314): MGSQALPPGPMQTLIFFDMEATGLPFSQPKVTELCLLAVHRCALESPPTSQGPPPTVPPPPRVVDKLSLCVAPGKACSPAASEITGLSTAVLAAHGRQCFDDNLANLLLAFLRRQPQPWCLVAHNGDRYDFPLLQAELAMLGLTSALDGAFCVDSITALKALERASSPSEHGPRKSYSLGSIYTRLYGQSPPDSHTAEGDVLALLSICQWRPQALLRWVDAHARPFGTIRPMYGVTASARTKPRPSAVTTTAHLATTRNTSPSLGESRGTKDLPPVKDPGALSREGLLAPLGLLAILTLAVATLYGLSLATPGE
As to the kind of experiment: hTREX1 Biochemical Assay (fluorescence, dsDNA substrate degradation). Conditions: biochemical, read-out: hTREX1 IC50. A digest of the protocol: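 Fluorescence rises as enzyme degrades a quenched TEX615-labelled dsDNA substrate (60 nM) in 50 mM Tris, 150 mM NaCl, 5 mM MgCl2, pH 7.4. Full-length His-Tev-tagged human TREX1, 4 pM, sits with compound 4 hours at 25° C before substrate; reaction 18 hours, stopped with EDTA.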

The target in assay [2] is T2, full length mouse TREX1 (Mus musculus, UniProt Q91XB0).
T2 construct: N-terminally His-Tev tagged full length mouse TREX1; made in house; host or cells: E. coli
T2 sequence (Q91XB0 1-314): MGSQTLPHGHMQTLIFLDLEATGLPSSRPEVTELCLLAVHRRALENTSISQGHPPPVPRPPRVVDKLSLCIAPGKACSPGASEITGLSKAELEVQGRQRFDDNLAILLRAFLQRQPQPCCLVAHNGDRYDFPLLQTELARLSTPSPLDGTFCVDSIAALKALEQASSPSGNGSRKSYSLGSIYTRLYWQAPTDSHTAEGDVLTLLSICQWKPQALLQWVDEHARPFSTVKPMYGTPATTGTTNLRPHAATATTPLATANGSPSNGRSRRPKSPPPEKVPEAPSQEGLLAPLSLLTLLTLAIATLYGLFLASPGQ
As to the kind of experiment: mTREX1 Biochemical Assay (fluorescence, dsDNA substrate degradation). Conditions: biochemical, read-out: mTREX1 IC50. In outline:
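Reaction run 18 h at 25° C. with 60 nM TEX615/quencher-labelled dsDNA and 6 pM mouse TREX1 in Tris buffer (pH 7.4, 5 mM MgCl2, 1.0% DMSO), enzyme having sat 4 h with compound across 10 concentrations. EDTA quench; substrate degradation measured as fluorescence increase.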

Assay [3] deals with T3, human TREX2 (residues M44-A279) (Homo sapiens, UniProt Q9BQ50).
T3 construct: human TREX2 (residues M44-A279, expressed in E. coli); made in house; host or cells: E. coli
T3 sequence (Q9BQ50 44-279 isoform Q9BQ50-1): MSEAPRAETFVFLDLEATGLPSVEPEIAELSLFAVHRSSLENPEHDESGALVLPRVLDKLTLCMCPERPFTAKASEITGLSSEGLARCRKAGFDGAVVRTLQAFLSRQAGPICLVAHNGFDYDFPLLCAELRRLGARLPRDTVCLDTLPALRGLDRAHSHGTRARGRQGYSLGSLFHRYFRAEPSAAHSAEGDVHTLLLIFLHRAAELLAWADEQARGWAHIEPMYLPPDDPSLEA
Kind of assay: hTREX2 Biochemical Assay (fluorescence, dsDNA substrate degradation). The note with it: biochemical selectivity for hTREX1 vs hTREX2. The method, then: Degradation of the dsDNA liberates free fluorophore to produce a fluorescent signal. Specifically, 7.5 μL of N-terminally His-Tev tagged human TREX2 (residues M44-A279, expressed in E. coli and purified in house) in reaction buffer (50 mM Tris, 150 mM NaCl, 2 mM DTT, 0.1 mg/mL BSA, 0.01% (w/v) Tween-20, 5 mM MgCl2, pH 7.4) was added to a 384-well Black ProxiPlate Plus (PerkinElmer) which already contained compound (150 nL) at varying concentrations as a 10 point dose-response in DMSO. The plate was incubated at 25° C. for 4 hours. Reactions were initiated by adding 7.5 μL of dsDNA substrate (Strand A: 5′ TEX615/GCT AGG CAG 3′; Strand B: 5′ CTG CCT AGC/IAbRQSp (IDT)) in reaction buffer. Final concentrations were 50 pM TREX2, 60 nM dsDNA substrate in reaction buffer with 1.0% DMSO (v/v). After 18 hours at 25° C., reactions were quenched by the addition of 2 μL of 500 mM EDTA. Final concentrations in the quenched reaction mixture were 44 pM TREX2, 53 nM DNA and 59 mM EDTA in a volume of 17 μL. After a 5-minute incubation at room temperature, plates were read in an EnVision plate reader (PerkinElmer) measuring fluorescence at 615 nm following excitation w/570 nm light.

Some results are limits rather than exact numbers.

A word on the IC50: it is the point on the concentration scale where inhibition reaches its midpoint. With `CCn1cc(C(c2ccc(F)cc2C#N)C(C)c2nc(C(=O)Nc3cnoc3)c(O)c(=O)n2C)c(C)n1` (single isomer, unassigned) [Example 55 D1E1], the IC50 in assay [1] and in assay [2] was less than 1 nM throughout. In assay [3], the “hTREX1 vs hTREX2 selectivity” value was “C (C = >50 fold selective for hTREX1)”.
As for `CC(c1nc(C(=O)Nc2cnoc2)c(O)c(=O)n1C)C(c1nnn(C)n1)c1ccccc1C#N` (single isomer, unassigned) [Example 79 D2E1], the IC50 was 1 to 10 nM in assay [1] and more than 10 nM in assay [2]. The “hTREX1 vs hTREX2 selectivity” value in assay [3] is reported as “A (A = <25 fold selective for hTREX1)”.
Regarding `Cc1nn(C)cc1C(c1ccc(F)cc1C#N)C(C)c1nc(C(=O)Nc2cnoc2)c(O)c(=O)n1C` (single isomer, unassigned) [Example 56 D1E1], the IC50 in assay [1] and in assay [2] was less than 1 nM each time. Also, the “hTREX1 vs hTREX2 selectivity” value in assay [3] was “C (C = >50 fold selective for hTREX1)”.
For `COCCn1ncc(C(c2ccccc2C#N)C(C)c2nc(C(=O)Nc3cnoc3)c(O)c(=O)n2C)c1C` (single isomer, unassigned) [Example 69 D2E2], the figures for the IC50 in assay [1] and in assay [2] were 1 to 10 nM and more than 10 nM, respectively. Moreover, in assay [3], the “hTREX1 vs hTREX2 selectivity” value is “B (B = 25 to 50-fold selective for hTREX1)”.
Taken in the same sequence, the figures for `CC(c1nc(C(=O)Nc2cnoc2)c(O)c(=O)n1C)C(c1cnn(C)c1)c1ccccc1Cl` (single isomer, unassigned) [Example 77 D2E2] were more than 10 nM, more than 10 nM and “A (A = <25 fold selective for hTREX1)”.
In the same order, the values of `CC(C)c1cnn(C(c2ccccc2Cl)C(C)c2nc(C(=O)Nc3cnoc3)c(O)c(=O)n2C)c1` (single isomer, unassigned) [Example 135 D1E2] are more than 10 nM, more than 10 nM and “A (A = <25 fold selective for hTREX1)”.
On to `CC(c1nc(C(=O)Nc2cnoc2)c(O)c(=O)n1C)C(c1cnn(CCN2CCOCC2)c1)c1ccccc1C#N` (single isomer, unassigned) [Example 20 D2E1], for which the half-maximal inhibitory concentration (IC50) in assay [1] and in assay [2] was more than 10 nM throughout. In assay [3], the “hTREX1 vs hTREX2 selectivity” value is recorded as “B (B = 25 to 50-fold selective for hTREX1)”.
Consider `Cc1cn(C)nc1C(c1ccccc1C#N)C(C)c1nc(C(=O)Nc2cnoc2)c(O)c(=O)n1C` (single isomer, unassigned) [Example 64 D2E1], for which the results for the IC50 in assay [1] and in assay [2] were less than 1 nM and 1 to 10 nM, respectively. Further, the “hTREX1 vs hTREX2 selectivity” value in assay [3] is on record as “C (C = >50 fold selective for hTREX1)”.
Take `CC(c1nc(C(=O)Nc2cnoc2)c(O)c(=O)n1C)C(c1cnn(CC(C)(C)O)c1)c1ccccc1Cl` (single isomer, unassigned) [Example 86 D2E2]: the IC50 in assay [1] and in assay [2] was more than 10 nM in each case. Besides, the “hTREX1 vs hTREX2 selectivity” value in assay [3] was “A (A = <25 fold selective for hTREX1)”.
On to `CC(c1nc(C(=O)Nc2cnoc2)c(O)c(=O)n1C)C(c1ccccc1Cl)c1cnn(C)c1C#N` (single isomer, unassigned) [Example 96 D2E1], for which the IC50 in assay [1] and in assay [2] was more than 10 nM in each case. In addition, the “hTREX1 vs hTREX2 selectivity” value in assay [3] is recorded as “A (A = <25 fold selective for hTREX1)”.
For the compound `CC(c1nc(C(=O)Nc2cnoc2)c(O)c(=O)n1C)C(c1cnn(CC(C)(C)O)c1)c1ccccc1C#N` (single isomer, unassigned) [Example 36 D2E1], the IC50 in assay [1] and in assay [2] was more than 10 nM throughout. Besides, the “hTREX1 vs hTREX2 selectivity” value in assay [3] is reported as “B (B = 25 to 50-fold selective for hTREX1)”.
Take `CCn1cc(C(c2ccc(F)cc2C#N)C(C)c2nc(C(=O)Nc3cnoc3)c(O)c(=O)n2C)c(C)n1` (single isomer, unassigned) [Example 55 D2E2]: the IC50 in assay [1] was 1 to 10 nM; in assay [2], more than 10 nM. Moreover, the “hTREX1 vs hTREX2 selectivity” value in assay [3] is recorded as “C (C = >50 fold selective for hTREX1)”.
Turning to `CCn1c(C(C)C(c2cnn(C)c2)c2ccccc2C#N)nc(C(=O)Nc2cnoc2)c(O)c1=O` (single isomer, unassigned) [Example 149 D1E1], the half-maximal inhibitory concentration (IC50) in assay [1] and in assay [2] was more than 10 nM throughout. The “hTREX1 vs hTREX2 selectivity” value in assay [3] is “A (A = <25 fold selective for hTREX1)”.
As for `CC(c1nc(C(=O)Nc2cnoc2)c(O)c(=O)n1C)C(c1ccccc1C#N)c1ccnn1C` (single isomer, unassigned) [Example 1 D2E2], the 50% inhibitory concentration (IC50) in assay [1] and in assay [2] was more than 10 nM in each case. Moreover, the “hTREX1 vs hTREX2 selectivity” value in assay [3] is reported as “B (B = 25 to 50-fold selective for hTREX1)”.
Take `CC(c1nc(C(=O)Nc2cnoc2)c(O)c(=O)n1C)C(c1cnn(C)c1)c1cc(F)ccc1C#N` (single isomer, unassigned) [Example 14 D2E1]: the concentration for half-maximal inhibition (IC50) in assay [1] and in assay [2] was more than 10 nM throughout. Also, the “hTREX1 vs hTREX2 selectivity” value in assay [3] was “A (A = <25 fold selective for hTREX1)”.
With `CC(c1nc(C(=O)Nc2cnoc2)c(O)c(=O)n1C)C(c1cnn(CC2COC2)c1)c1ccccc1Cl` (single isomer, unassigned) [Example 88 D1E2], the IC50 in assay [1] is 1 to 10 nM; in assay [2], more than 10 nM. Moreover, the “hTREX1 vs hTREX2 selectivity” value in assay [3] is “A (A = <25 fold selective for hTREX1)”.
In the same order, the values of `Cc1ncc(C(c2cc(F)ccc2C#N)C(C)c2nc(C(=O)Nc3cnoc3)c(O)c(=O)n2C)nc1C` (single isomer, unassigned) [Example 124 D2E1] are more than 10 nM, more than 10 nM and “A (A = <25 fold selective for hTREX1)”.
Turning to `Cc1nn(C)cc1C(c1cc(F)ccc1C#N)C(c1nc(C(=O)Nc2cnoc2)c(O)c(=O)n1C)C(F)(F)F` (single isomer, unassigned) [Example 42 D2E1], the IC50 in assay [1] was 1 to 10 nM; in assay [2] it was more than 10 nM. In addition, the “hTREX1 vs hTREX2 selectivity” value in assay [3] is on record as “B (B = 25 to 50-fold selective for hTREX1)”.
Taken in the same sequence, the figures for `Cc1nccc(C(c2ccccc2C#N)C(C)c2nc(C(=O)Nc3cnoc3)c(O)c(=O)n2C)n1` (single isomer, unassigned) [Example 83 D1E2] were more than 10 nM, more than 10 nM and “A (A = <25 fold selective for hTREX1)”.
Taken in the same sequence, the figures for `CCn1cc(C(c2ccccc2C#N)C(C)c2nc(C(=O)Nc3cnoc3)c(O)c(=O)n2C)cn1` (single isomer, unassigned) [Example 13 D1E2] were more than 10 nM, more than 10 nM and “B (B = 25 to 50-fold selective for hTREX1)”.
As for `CC(c1nc(C(=O)Nc2cnoc2)c(O)c(=O)n1C)C(c1ccccc1Cl)n1cc2ccccc2n1` (single isomer, unassigned) [Example 141 D1E2], the IC50 in assay [1] and in assay [2] was more than 10 nM throughout. In assay [3], the “hTREX1 vs hTREX2 selectivity” value is “A (A = <25 fold selective for hTREX1)”.
Take `CC(c1nc(C(=O)Nc2cnoc2)c(O)c(=O)n1C)C(c1cnn(C(C)C)c1)c1ccccc1C#N` (single isomer, unassigned) [Example 105 D1E1]: the IC50 in assay [1] and in assay [2] was more than 10 nM each time. The “hTREX1 vs hTREX2 selectivity” value in assay [3] was “A (A = <25 fold selective for hTREX1)”.
